Laboratory results as given in patent US8415469B2, “Compounds and methods for kinase modulation, and indications therefor” (Plexxikon Inc., priority 2005, dated 2013).

What was measured:
Format in all cases: biochemical
FGFR1 = molecular target: T1, FGFR1 (Homo sapiens, UniProt P11362, C488A/C584S); assay: AlphaScreen kinase assay, FGFR1; settings: read-out: IC50, activity toward kinase FGFR
T1 construct: P1351.pET N6 BI-PTP FGFR A458-E765-X C488A, C584S; made in house; host or cells: E. coli (PTP1B co-expressed)
T1 sequence (P11362 458-765 C488A/C584S): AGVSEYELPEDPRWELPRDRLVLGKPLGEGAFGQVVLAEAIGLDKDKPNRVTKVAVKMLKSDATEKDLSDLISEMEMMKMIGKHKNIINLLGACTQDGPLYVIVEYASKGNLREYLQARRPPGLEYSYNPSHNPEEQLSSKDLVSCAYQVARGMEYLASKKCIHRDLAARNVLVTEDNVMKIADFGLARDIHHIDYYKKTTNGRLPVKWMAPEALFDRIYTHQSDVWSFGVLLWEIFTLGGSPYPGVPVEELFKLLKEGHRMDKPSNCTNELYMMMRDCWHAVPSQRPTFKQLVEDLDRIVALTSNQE

Btk = molecular target: T2, Btk (Homo sapiens, UniProt Q06187); assay: Z'-Lyte FRET kinase assay (Invitrogen), Btk; settings: read-out: IC50, activity toward kinase Btk
T2 construct: purchased Invitrogen (assay run by Invitrogen)
T2 sequence (Q06187 whole entry): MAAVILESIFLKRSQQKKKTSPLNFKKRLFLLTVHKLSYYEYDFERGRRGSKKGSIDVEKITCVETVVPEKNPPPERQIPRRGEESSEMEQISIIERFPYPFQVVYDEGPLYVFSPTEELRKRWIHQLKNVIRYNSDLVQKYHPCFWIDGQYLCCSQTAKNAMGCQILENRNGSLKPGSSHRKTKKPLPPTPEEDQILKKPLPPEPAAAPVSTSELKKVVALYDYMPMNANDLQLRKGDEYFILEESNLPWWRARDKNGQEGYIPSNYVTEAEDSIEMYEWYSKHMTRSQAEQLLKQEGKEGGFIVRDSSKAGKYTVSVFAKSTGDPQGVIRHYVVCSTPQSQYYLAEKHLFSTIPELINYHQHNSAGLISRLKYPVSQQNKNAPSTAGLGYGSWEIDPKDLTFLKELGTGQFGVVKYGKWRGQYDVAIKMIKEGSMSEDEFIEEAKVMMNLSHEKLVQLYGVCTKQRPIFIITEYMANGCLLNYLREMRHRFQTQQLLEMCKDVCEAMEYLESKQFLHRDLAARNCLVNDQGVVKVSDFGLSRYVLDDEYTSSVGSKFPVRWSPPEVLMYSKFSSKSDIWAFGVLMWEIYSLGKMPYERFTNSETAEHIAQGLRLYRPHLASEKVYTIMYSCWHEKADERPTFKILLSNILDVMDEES

B-Raf V600E = molecular target: T3, B-Raf V600E (Homo sapiens, UniProt P15056, V600E); assay: AlphaScreen kinase assay, B-Raf V600E; settings: read-out: IC50, activity toward kinase B-Raf V600E
T3 construct: P4254. pFastBacBD-CDC37 BRAF D437-K722-X, V600E; His6 with pFastBac HT leader (TEV site) (N); made in house; host or cells: Sf9 (baculovirus; chaperone CDC37 co-expressed)
T3 sequence (P15056 with tags, fused parts or gaps V600E): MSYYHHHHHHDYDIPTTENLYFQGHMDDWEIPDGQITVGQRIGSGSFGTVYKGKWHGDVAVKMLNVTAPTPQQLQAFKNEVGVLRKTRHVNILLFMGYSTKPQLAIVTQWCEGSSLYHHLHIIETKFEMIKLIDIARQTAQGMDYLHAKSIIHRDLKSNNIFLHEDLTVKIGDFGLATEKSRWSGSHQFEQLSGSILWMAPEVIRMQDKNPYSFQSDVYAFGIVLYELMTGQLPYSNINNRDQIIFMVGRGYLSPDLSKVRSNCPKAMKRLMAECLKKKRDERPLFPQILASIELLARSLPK

Fms = molecular target: T4, Fms (Homo sapiens, UniProt P07333); assay: AlphaScreen kinase assay, Fms; settings: read-out: IC50, activity toward kinase Fms
T4 construct: purchased Upstate Biotechnology
T4 sequence (P07333 20-972): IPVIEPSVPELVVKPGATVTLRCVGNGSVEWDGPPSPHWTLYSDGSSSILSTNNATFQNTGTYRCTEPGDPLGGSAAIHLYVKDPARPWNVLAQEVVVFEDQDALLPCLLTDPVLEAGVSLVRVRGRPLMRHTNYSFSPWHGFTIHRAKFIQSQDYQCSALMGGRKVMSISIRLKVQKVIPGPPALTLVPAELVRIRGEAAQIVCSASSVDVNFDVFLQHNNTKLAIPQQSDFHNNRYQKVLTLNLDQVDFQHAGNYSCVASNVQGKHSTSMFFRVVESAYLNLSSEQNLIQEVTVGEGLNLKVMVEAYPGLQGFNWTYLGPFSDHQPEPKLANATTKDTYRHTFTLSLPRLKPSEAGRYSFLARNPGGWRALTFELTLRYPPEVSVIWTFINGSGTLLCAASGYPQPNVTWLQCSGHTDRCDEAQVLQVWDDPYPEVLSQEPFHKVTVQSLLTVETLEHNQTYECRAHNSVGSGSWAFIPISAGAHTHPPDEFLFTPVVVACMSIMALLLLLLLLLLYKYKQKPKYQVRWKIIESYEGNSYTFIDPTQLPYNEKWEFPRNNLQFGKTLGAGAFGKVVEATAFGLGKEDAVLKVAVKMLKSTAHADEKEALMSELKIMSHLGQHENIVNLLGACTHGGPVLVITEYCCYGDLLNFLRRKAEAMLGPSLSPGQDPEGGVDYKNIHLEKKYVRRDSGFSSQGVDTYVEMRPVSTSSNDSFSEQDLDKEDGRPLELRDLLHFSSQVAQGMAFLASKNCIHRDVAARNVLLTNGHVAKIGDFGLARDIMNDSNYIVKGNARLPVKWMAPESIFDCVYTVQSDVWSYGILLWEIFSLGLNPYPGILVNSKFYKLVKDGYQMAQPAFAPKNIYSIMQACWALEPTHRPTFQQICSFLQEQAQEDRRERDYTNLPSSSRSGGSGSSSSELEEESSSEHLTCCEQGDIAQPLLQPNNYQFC

Fak = molecular target: T5, Fak (Homo sapiens, UniProt Q05397); assay: AlphaScreen kinase assay, Fak; settings: read-out: IC50, activity toward kinase Fak
T5 construct: P1358.pFastBacHtb FAK S411-Q686-X; His6 with pFastBacHTb leader (TEV site) (N); made in house; host or cells: Sf9 (baculovirus)
T5 sequence (Q05397 411-686): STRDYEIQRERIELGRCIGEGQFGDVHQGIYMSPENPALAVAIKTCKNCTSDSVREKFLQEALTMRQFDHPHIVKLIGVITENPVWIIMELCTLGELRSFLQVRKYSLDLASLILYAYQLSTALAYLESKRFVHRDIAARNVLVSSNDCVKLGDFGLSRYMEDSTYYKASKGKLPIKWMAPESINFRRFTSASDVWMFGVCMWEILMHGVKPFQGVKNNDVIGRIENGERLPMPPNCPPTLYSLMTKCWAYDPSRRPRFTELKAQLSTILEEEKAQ

Kit = molecular target: T6, Kit (Homo sapiens, UniProt P10721); assay: AlphaScreen kinase assay, Kit; settings: read-out: IC50, activity toward kinase Kit
T6 construct: P1332.N6 BI PTP KIT M552-K948-X COD; His6 (N); made in house; host or cells: E. coli (PTP1B co-expressed)
T6 sequence (P10721 with tags, fused parts or gaps): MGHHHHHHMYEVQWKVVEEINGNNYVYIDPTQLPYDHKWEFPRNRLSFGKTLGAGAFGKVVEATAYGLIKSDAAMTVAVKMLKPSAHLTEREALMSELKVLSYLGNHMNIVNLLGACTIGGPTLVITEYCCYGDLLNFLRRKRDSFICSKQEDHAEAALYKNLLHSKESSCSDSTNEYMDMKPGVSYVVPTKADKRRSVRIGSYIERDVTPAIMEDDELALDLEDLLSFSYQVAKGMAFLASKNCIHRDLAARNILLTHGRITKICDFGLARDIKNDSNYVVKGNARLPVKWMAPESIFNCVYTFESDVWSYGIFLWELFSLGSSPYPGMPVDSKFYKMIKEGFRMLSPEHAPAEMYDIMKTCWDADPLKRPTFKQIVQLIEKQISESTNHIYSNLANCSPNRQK

B-Raf = molecular target: T7, B-Raf (Homo sapiens, UniProt P15056); assay: AlphaScreen kinase assay, B-Raf; settings: read-out: IC50, activity toward kinase B-Raf
T7 construct: purchased Upstate Biotechnology
T7 sequence (P15056 whole entry): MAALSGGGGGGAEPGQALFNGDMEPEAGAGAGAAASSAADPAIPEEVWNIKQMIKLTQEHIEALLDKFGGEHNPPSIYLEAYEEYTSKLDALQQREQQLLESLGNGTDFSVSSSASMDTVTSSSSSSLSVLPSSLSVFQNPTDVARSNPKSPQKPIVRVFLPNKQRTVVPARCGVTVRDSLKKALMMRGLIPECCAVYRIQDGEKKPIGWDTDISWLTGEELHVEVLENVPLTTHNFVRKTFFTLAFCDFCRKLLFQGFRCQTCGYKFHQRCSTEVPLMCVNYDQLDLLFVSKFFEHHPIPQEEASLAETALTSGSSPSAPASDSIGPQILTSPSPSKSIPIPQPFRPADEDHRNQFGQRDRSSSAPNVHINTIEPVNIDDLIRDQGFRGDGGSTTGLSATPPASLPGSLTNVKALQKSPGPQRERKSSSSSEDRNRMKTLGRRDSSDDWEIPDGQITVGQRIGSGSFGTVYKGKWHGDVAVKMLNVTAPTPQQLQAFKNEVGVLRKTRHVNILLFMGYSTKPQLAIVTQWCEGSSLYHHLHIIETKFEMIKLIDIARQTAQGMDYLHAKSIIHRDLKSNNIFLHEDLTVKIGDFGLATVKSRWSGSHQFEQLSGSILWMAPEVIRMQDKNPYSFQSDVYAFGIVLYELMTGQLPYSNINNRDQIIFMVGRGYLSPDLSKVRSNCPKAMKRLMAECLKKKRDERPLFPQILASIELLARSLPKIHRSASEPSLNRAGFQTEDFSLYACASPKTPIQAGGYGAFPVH

Src = molecular target: T8, Src (Homo sapiens, UniProt P12931); assay: AlphaScreen kinase assay, Src; settings: read-out: IC50, activity toward kinase Src
T8 construct: P1144. pET-N6 BI-PTP SRC V86-L536-X; made in house
T8 sequence (P12931 with tags, fused parts or gaps): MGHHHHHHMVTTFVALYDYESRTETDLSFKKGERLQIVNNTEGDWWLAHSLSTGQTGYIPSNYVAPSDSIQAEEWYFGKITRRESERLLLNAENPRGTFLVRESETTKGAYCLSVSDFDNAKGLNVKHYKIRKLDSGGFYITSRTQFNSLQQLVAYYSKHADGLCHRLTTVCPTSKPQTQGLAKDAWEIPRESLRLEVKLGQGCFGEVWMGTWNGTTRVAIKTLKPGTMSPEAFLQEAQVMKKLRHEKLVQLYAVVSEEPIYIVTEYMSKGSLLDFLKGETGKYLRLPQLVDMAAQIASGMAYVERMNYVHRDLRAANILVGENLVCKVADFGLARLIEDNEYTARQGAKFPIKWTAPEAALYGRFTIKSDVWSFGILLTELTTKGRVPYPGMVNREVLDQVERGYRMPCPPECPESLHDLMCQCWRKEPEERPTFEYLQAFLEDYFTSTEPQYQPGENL

c-Raf-1 = molecular target: T9, c-Raf-1 (Homo sapiens, UniProt P04049); assay: AlphaScreen kinase assay, c-Raf-1; settings: read-out: IC50, activity toward kinase c-Raf-1
T9 construct: purchased Upstate Biotechnology
T9 sequence (P04049 whole entry): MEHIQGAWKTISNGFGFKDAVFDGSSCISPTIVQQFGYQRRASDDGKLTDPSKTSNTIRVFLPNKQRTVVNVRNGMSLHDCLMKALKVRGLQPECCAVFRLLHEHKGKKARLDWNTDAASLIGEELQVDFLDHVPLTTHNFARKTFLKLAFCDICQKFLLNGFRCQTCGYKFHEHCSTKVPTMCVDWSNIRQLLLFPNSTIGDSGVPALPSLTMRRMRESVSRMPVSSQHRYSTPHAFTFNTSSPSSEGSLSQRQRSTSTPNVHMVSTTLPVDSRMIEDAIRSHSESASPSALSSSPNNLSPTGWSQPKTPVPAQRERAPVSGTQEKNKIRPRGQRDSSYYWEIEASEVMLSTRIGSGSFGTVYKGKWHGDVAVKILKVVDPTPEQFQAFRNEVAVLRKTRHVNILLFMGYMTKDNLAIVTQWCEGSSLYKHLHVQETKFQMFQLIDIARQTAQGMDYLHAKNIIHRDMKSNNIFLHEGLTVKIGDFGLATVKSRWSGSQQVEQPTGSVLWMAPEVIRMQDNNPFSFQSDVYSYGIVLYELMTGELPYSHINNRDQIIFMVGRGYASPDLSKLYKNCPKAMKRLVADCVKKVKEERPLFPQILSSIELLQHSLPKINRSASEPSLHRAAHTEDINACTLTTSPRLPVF

Ret = molecular target: T10, Ret (Homo sapiens, UniProt P07949); assay: AlphaScreen kinase assay, Ret; settings: read-out: IC50, activity toward kinase Ret
T10 construct: P1378.pET-SF BI-PTP RET H661-R1012 HIS; made in house
T10 sequence (P07949 with tags, fused parts or gaps): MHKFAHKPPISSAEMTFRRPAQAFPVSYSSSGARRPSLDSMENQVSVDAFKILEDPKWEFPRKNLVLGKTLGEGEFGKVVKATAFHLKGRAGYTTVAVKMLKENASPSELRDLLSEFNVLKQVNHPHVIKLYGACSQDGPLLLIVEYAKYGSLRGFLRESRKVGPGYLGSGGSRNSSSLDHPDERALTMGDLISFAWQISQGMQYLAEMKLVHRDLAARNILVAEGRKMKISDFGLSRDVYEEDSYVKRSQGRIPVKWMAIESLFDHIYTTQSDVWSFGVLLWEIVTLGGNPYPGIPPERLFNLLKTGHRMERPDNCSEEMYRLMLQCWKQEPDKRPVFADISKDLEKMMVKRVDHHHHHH

Jnk1 = molecular target: T11, Jnk1 (Homo sapiens, UniProt P45983); assay: AlphaScreen kinase assay, Jnk1; settings: read-out: IC50, activity toward kinase Jnk1
T11 construct: purchased Upstate Biotechnology

Kdr = molecular target: T12, Kdr (Homo sapiens, UniProt P35968); assay: Z'-Lyte FRET kinase assay (Invitrogen), Kdr; settings: read-out: IC50, activity toward kinase Kdr
T12 construct: purchased Invitrogen (assay run by Invitrogen)

Flt1 = molecular target: T13, Flt1 (Homo sapiens, UniProt P17948); assay: AlphaScreen kinase assay, Flt1; settings: read-out: IC50, activity toward kinase Flt1
T13 construct: P1826.pETN6 BI-PTP FLT1 M799-D1165-X WT; His6 (N); made in house; host or cells: E. coli (PTP1B co-expressed)
T13 sequence (P17948 with tags, fused parts or gaps): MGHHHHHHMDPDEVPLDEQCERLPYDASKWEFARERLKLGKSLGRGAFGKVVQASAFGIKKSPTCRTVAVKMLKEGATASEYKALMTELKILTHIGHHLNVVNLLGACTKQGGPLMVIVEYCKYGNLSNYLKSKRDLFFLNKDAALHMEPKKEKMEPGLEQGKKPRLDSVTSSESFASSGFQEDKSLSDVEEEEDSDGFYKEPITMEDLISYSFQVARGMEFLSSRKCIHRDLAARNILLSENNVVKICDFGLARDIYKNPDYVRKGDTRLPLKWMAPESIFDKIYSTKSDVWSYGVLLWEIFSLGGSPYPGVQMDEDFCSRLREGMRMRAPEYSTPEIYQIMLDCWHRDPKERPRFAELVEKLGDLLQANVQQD

Jnk3 = molecular target: T14, Jnk3 (Homo sapiens, UniProt P53779); assay: AlphaScreen kinase assay, Jnk3; settings: read-out: IC50, activity toward kinase Jnk3
T14 construct: purchased Upstate Biotechnology

Stk6 = molecular target: T15, Stk6 (Homo sapiens, UniProt O14965); assay: Z'-Lyte FRET kinase assay (Invitrogen), Stk6; settings: read-out: IC50, activity toward kinase Stk6
T15 construct: purchased Invitrogen (Carlsbad, Calif.), screening service
T15 sequence (O14965 1-403): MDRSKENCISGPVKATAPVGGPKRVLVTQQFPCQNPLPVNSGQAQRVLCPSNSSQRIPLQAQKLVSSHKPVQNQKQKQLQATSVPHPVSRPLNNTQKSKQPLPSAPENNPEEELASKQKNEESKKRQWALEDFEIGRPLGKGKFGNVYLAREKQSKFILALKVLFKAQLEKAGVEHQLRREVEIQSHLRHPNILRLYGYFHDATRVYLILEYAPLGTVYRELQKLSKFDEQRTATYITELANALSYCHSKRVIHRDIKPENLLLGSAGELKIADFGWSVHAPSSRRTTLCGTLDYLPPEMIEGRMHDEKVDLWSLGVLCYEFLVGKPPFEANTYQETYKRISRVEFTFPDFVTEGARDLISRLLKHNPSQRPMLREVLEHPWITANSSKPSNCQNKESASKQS

Row | Structure (SMILES) | IC50 (FGFR1) [µM] | IC50 (Btk) [µM] | IC50 (B-Raf V600E) [µM] | IC50 (Fms) [µM] | IC50 (Fak) [µM] | IC50 (Kit) [µM] | IC50 (B-Raf) [µM] | IC50 (Src) [µM] | IC50 (c-Raf-1) [µM] | IC50 (Ret) [µM] | IC50 (Jnk1) [µM] | IC50 (Kdr) [µM] | IC50 (Flt1) [µM] | IC50 (Jnk3) [µM] | IC50 (Stk6) [µM]
1 | O=C(c1c(Cl)cccc1Cl)c1c[nH]c2ncc(-c3cccnc3)cc12 [Compound P-1479] | ≤ 10 | ≤ 10 | ≤ 10 | ≤ 10 | ≤ 10 | ≤ 10 | ≤ 10 | ≤ 10 |  |  |  |  |  |  | 
2 | Cc1ccccc1C(=O)c1c[nH]c2ncc(Br)cc12 [Compound P-0217] | ≤ 10 | ≤ 10 |  |  |  | ≤ 10 |  |  |  |  |  |  |  |  | 
3 | O=C(c1ccc(Cl)cc1)c1c[nH]c2ncc(-c3ccsc3)cc12 [Compound P-0321] | ≤ 10 | ≤ 10 |  |  |  | ≤ 10 |  |  |  | ≤ 10 |  | ≤ 10 |  |  | 
4 | COc1cc(OC)cc(C(=O)c2c[nH]c3ncc(-c4cccc(NC(C)=O)c4)cc23)c1 [Compound P-1420, N-{3-[3-(3,5-Dimethoxy-benzoyl)-1H-pyrrolo[2,3-b]pyridin-5-yl]-phenyl}-acetamide] | ≤ 10 | ≤ 10 | ≤ 10 | ≤ 10 |  | ≤ 10 | ≤ 10 |  |  |  |  |  | ≤ 10 |  | 
5 | CC(=O)Nc1cccc(-c2ccnc3[nH]cc(C(=O)c4cc(F)ccc4F)c23)c1 [Compound P-0280] |  | ≤ 10 |  |  |  |  |  |  |  | ≤ 10 |  |  |  |  | 
6 | CCCS(=O)(=O)Nc1ccc(F)c(C(=O)c2c[nH]c3ncc(/C=C/C(=O)O)cc23)c1F [Compound P-1269, 3-3-[2,6-difluoro-3-(propane-1-sulfonylamino)-benzoyl]-1H-pyrrolo[2,3-b]pyridin-5-yl-acrylic acid] | ≤ 10 | ≤ 10 | ≤ 10 | ≤ 10 | ≤ 10 | ≤ 10 | ≤ 10 | ≤ 10 |  |  |  |  | ≤ 10 |  | 
7 | CC(=O)Nc1cccc(-c2ccnc3[nH]cc(C(=O)c4ccccc4C)c23)c1 [Compound P-0314] |  | ≤ 10 |  |  |  |  |  |  |  | ≤ 10 |  |  |  |  | 
8 | O=Cc1ccsc1-c1ccnc2[nH]ccc12 [Compound P-0276] |  |  |  |  | ≤ 10 |  |  |  |  |  |  |  |  |  | ≤ 10
9 | Cc1cccc(C)c1Cc1c[nH]c2ncc(-c3cccnc3)cc12 [Compound P-1481, 3-(2,6-Dimethyl-benzyl)-5-pyridin-3-yl-1H-pyrrolo[2,3-b]pyridine] | ≤ 10 | ≤ 10 | ≤ 10 | ≤ 10 | ≤ 10 | ≤ 10 | ≤ 10 | ≤ 10 |  |  |  |  |  |  | 
10 | Cc1cccc(C)c1C(=O)c1c[nH]c2ncc(-c3cccnc3)cc12 [Compound P-1480] | ≤ 10 | ≤ 10 | ≤ 10 | ≤ 10 | ≤ 10 | ≤ 10 | ≤ 10 | ≤ 10 |  |  |  |  |  |  | 
11 | O=C(c1c(F)ccc(NS(=O)(=O)c2cccs2)c1F)c1c[nH]c2ncc(Cl)cc12 [Compound P-1267, Thiophene-2-sulfonic acid [3-(5-chloro-1H-pyrrolo[2,3-b]pyridine-3-carbonyl)-2,4-difluoro-phenyl]-amide] | ≤ 10 | ≤ 10 | ≤ 10 | ≤ 10 | ≤ 10 | ≤ 10 | ≤ 10 | ≤ 10 |  |  |  |  |  |  | 

Second part, the molecule after the results:

Row | IC50 (FGFR1) [µM] | IC50 (Btk) [µM] | IC50 (B-Raf V600E) [µM] | IC50 (Fms) [µM] | IC50 (Fak) [µM] | IC50 (Kit) [µM] | IC50 (B-Raf) [µM] | IC50 (Src) [µM] | IC50 (c-Raf-1) [µM] | IC50 (Ret) [µM] | IC50 (Jnk1) [µM] | IC50 (Kdr) [µM] | IC50 (Flt1) [µM] | IC50 (Jnk3) [µM] | IC50 (Stk6) [µM] | Structure (SMILES)
12 | ≤ 10 | ≤ 10 | ≤ 10 | ≤ 10 | ≤ 10 | ≤ 10 | ≤ 10 |  | ≤ 10 |  |  |  |  |  |  | COc1ccc(F)c(C(=O)c2c[nH]c3ncc(-c4ccncc4)cc23)c1F [Compound P-1389, (2,6-Difluoro-3-methoxy-phenyl)-(5-pyridin-4-yl-1H-pyrrolo[2,3-b]pyridin-3-yl)-methanone]
13 | ≤ 10 | ≤ 10 | ≤ 10 | ≤ 10 | ≤ 10 | ≤ 10 | ≤ 10 | ≤ 10 | ≤ 10 |  |  |  |  |  |  | COc1ccc(F)c(C(=O)c2c[nH]c3ncc(-c4cccnc4)cc23)c1F [Compound P-1388, (2,6-Difluoro-3-methoxy-phenyl)-(5-pyridin-3-yl-1H-pyrrolo[2,3-b]pyridin-3-yl)-methanone]
14 | ≤ 10 | ≤ 10 |  |  |  | ≤ 10 |  |  |  | ≤ 10 |  |  |  |  |  | Cc1ccc(F)cc1C(=O)c1c[nH]c2ncc(-c3ccc(Cl)cc3)cc12 [Compound P-0304]
15 | ≤ 10 | ≤ 10 | ≤ 10 | ≤ 10 |  | ≤ 10 | ≤ 10 | ≤ 10 |  |  | ≤ 10 |  |  |  |  | COc1cccc(C(=O)c2c[nH]c3ncc(-c4cccnc4)cc23)c1F [Compound P-1343, (2-Fluoro-3-methoxy-phenyl)-(5-pyridin-3-yl-1H-pyrrolo[2,3-b]pyridin-3-yl)-methanone]
16 | ≤ 10 | ≤ 10 | ≤ 10 | ≤ 10 |  |  | ≤ 10 | ≤ 10 | ≤ 10 | ≤ 10 | ≤ 10 |  |  | ≤ 10 |  | O=C(c1c(F)ccc(NCc2ccccc2)c1F)c1c[nH]c2ncc(-c3cccnc3)cc12 [Compound P-0807, (3-Benzylamino-2,6-difluoro-phenyl)-(5-pyridin-3-yl-1H-pyrrolo[2,3-b]pyridin-3-yl)-methanone]
17 | ≤ 10 | ≤ 10 | ≤ 10 | ≤ 10 |  |  | ≤ 10 |  |  | ≤ 10 |  |  |  |  |  | COc1ccc(F)c(C(=O)c2c[nH]c3ncc(-c4ccccc4)cc23)c1 [Compound P-0351]
18 | ≤ 10 | ≤ 10 | ≤ 10 | ≤ 10 | ≤ 10 |  | ≤ 10 | ≤ 10 |  |  |  |  |  | ≤ 10 |  | O=C(c1c(F)cccc1F)c1c[nH]c2ncc(-c3cccnc3)cc12 [Compound P-1485]
